Test results reported in patent US20120282266A1, “ANTI-NEOPLASTIC USES OF ARTEMIN ANTAGONISTS” (AUCKLAND UNISERVICES LIMITED, priority 2009, published 2012).

How the values were obtained:
ARTN = test: Western blot for ARTN protein expression in BT549 and MDA-MB-231 cell pairs; format: cell-based, human; details: BT549 wild type cells, with paclitaxel vs without paclitaxel
Procedure: Western blot analysis was performed as described previously (Liu and Lobie, 2007) using the following antibodies: goat anti-artemin polyclonal antibody (R&D systems, Minneapolis, Minn.) and mouse anti-β-Actin monoclonal antibody (Sigma, St Louis, Mo.).
Western blot analysis was performed as described above in Example 1.
Reagents, Western blot analysis, and cell function and viability assays were all done as described above in Example 2.

BT549 PTX Res cells = test: Cell function assays (monolayer viability, soft agar colony formation, 3D matrigel growth), BT549-PTX Res; format: cell-based
Procedure: (§1) For soft agar colony formation assay, cells were cultured in 96-well plates first covered with a layer of agar (0.5%). Cells were grown in medium containing 10% FBS. 5×10^3 cells were seeded into 100 μl 0.35% agarose and onto the 0.5% agarose base layer. 100 μl serum-supplemented medium containing drug or antibody was added on the top and changed every 3 days. The plates were incubated at 37° C. in a humidified incubator. After 10 days, alarmarBlue® was added (1:10 volume reagent, Invitrogen) and incubated at 37° C. for 4 hours, followed by measurement of fluorescence with excitation wavelength at 530 nm and emission wavelength at 590 nm.
For the 3D Matrigel™ culture, monolayer grown cells were harvested by trypsinization, taken up in the complete medium, and separated into single-cell suspension by several passages through a Pasteur pipette. After this, 50 μl complete medium containing 5,000 cells was added to 150 μl of growth factor reduced Matrigel™ (Becton Dickinson, Bedford, Mass.) diluted 1:1 with complete media with 20% FBS. […] Organoid formation was counted in randomly chosen fields with light microscopy. […]
Cell viability, soft agar colony formation assay and 3D matrigel growth assays were performed as described above in Example 1. For the cell viability assay, 3000 cells were seeded into 100 ul media(2% FBS) and every 24 h viability was determined.

[1] = tested on: TAMR cells (tamoxifen resistant MCF-7); test: Cell number growth assay in estrogen free medium, TAMR cells; format: cell-based, human; details: 1 μM tamoxifen, 7 days
Procedure: (§2) For estrogen-free cell culture, MCF-7 cells were cultured in phenol red free RPMI-1640 supplemented with 10% dextran coated charcoal stripped fetal bovine serum (CS-FBS) for 3 days before estrogen or antiestrogen treatment. The tamoxifen resistant (TAMR) cell line was established as described by Shaw et al. (2006). Briefly, the parental MCF-7 cells were continuously exposed for 6 months to 1 μM tamoxifen in phenol red free RPMI 1640 medium containing 10% CS-FBS until the cells developed resistance to the growth inhibitory effect of tamoxifen. MCF-7 cells sensitive to tamoxifen, cultured in the same medium without tamoxifen, were designated as tamoxifen sensitive (TAMS) cells. Cells were seeded onto 6-well plates at a density of 5×10^4 cells per well, in triplicate, in 3 ml of complete medium containing 10% or 0.2% FBS. Cells were cultured under these conditions for up to 10 days with medium changed every other day until harvesting. To compare the cell proliferation rate, the total cell number in each well was quantified with a haemocytometer every 2 days. Cell viability was assessed by using trypan blue.

[2] = tested on: TAMS cells (tamoxifen sensitive MCF-7); test: Cell number growth assay in estrogen free medium, TAMS cells; format: cell-based, human; details: 1 μM tamoxifen, 7 days
Procedure: as §2

[3] = tested on: TAMR cells (tamoxifen resistant MCF-7); test: Soft agar colony formation (anchorage independent growth), TAMR cells; format: cell-based, human; details: 1 μM tamoxifen alone, 10 days
Procedure: as §1
To perform soft agar colony formation assays, 50 μl of 0.5% agarose in serum containing medium was plated onto each well of 96-well flat-bottom microplates, as a base agar layer. Next, 5×10^3 cells in a […] mixture of 0.35% agarose in serum containing medium were plated onto the base layer. Subsequently, 100 μl of the medium was added to prevent drying of the agarose gels. For antibody treatment, the antibodies at the indicated concentrations were added into the top agar layer and the culture medium to ensure the complete exposure of cells to antibodies. […] The plate was shaken briefly and then read at 595 nm (test wavelength) and 690 nm (reference wavelength) using the Synergy™ 2 Multi-Mode Microplate Reader (BioTek instruments, Inc., Vermont, USA).

artemin = test: Artemin expression by semi-quantitative RT-PCR and Western blot in TAMS/TAMR cells; format: cell-based, human; details: 1 μM tamoxifen, 72 hours
Procedure: Total RNA was isolated from cultured cells with Trizol reagent (Invitrogen) at 1 ml/10 cm2 according to the manufacturer's instructions. RNA was resuspended in diethyl pyrocarbonate (DEPC)-treated nuclease-free water. RNA samples were further treated with DNase I for 30 min at 37° C. The reaction was stopped by addition of 25 mM EDTA and incubation at 65° C. for 15 min. RNA samples were then purified by extraction in phenol/chloroform (pH 5.2, phenol:chloroform:isoamyl alcohol at 25:24:1) followed by an additional chloroform extraction and ethanol precipitation. Quantification and purity of the RNA was assessed by A260/A280 absorption, and RNA quality was assessed by agarose gel electrophoresis. RNA samples with ratios of A260/A280 greater than 1.6 were stored at −80° C. for further analysis.
One-step reverse transcription (RT)-PCR kit (Qiagen) was used to determine the presence of artemin transcript using a pair of primers: 5′-[…]-3 (forward; SEQ ID NO: 41) and 5′-[…]-3′ (reverse; SEQ ID NO: 42). For RT-PCR, the following procedure was employed. To start, 1 μg of total RNA was diluted to 0.1 μg/μl to minimize the variation of sample handling. This dilution was treated by DNase I for 15 min, followed by inactivation of DNase by adding EDTA to 5 mM and heating to 70° C. for 15 min. […]

CC(=O)O[C@H]1C(=O)[C@@]2(C)[C@H]([C@H](OC(=O)c3ccccc3)[C@]3(O)C[C@H](OC(=O)[C@H](O)[C@@H](NC(=O)c4ccccc4)c4ccccc4)C(C)=C1C3(C)C)[C@]1(OC(C)=O)CO[C@@H]1C[C@@H]2O [paclitaxel]
ARTN expression (ARTN): increased ARTN expression | difference in sensitivity to paclitaxel, resistant subline vs parental line (BT549 PTX Res cells; BT549-PTX Res vs parental BT549): ~2 fold | sensitivity to paclitaxel in monolayer proliferation, colony formation in soft agar and 3D matrigel growth (BT549 PTX Res cells; paclitaxel resistant cells compared to paclitaxel sensitive cells): less sensitivity to paclitaxel

CC/C(=C(\c1ccccc1)c1ccc(OCCN(C)C)cc1)c1ccccc1 [tamoxifen]
growth of TAMR cells [1]: loss of response to E2 and of tamoxifen sensitivity | growth of TAMS cells [2]: retained the response to E2 and tamoxifen sensitivity | colony formation in soft agar [3]: did not affect colony formation | artemin expression (mRNA and protein) (artemin; TAMR cells): retained elevated artemin expression | artemin expression (mRNA and protein) (artemin; TAMS cells): markedly abrogated artemin expression
